One assay deals with T1, BIR2 domain of XIAP (Homo sapiens, UniProt P98170, C202A/C213G).
T1 construct: 6× Histidine-tagged BIR2 domain, corresponding to amino acids 124-240 of XIAP
Put plainly: TR-FRET assay for BIR2 (inhibition of binding of XIAP BIR2 domain to SMAC-derived Peptide A). The following applies: 6x Histidine-tagged BIR2 domain (amino acids 124-240 of XIAP) 10 nM, Peptide A 20 nM. As for the experimental part: (§1) TR-FRET Assay for BIR2 and BIR3
(§2) The ability of a test compound to inhibit the binding of BIR2 and/or BIR3 domains of the XIAP protein to Peptide A (a SMAC-derived peptide described below) evidences that the test compound acts as a SMAC-mimetic resulting in reactivation of a cell's apoptotic pathway.
(§3) The peptides were labeled with the fluorescent tags FITC or TAMRA and Kd values were determined by fluorescence polarization assay. […] The peptide sequence was derivatized with biotin to provide […]-(ε-biotin)-OH 1:2 TFA as the substrate for the TR-FRET assay.
The XIAP protein sequence was obtained from the SWISS-PROT protein sequence database and the BIR2 and BIR3 domains were derived from that. The sequence of the BIR2 domain used for the TR-FRET assay is […].
Time-resolved fluorescence resonance energy transfer (TR-FRET) signals were measured 1 hour later at room temperature. Test compound potency was assessed at 10 serially diluted concentrations. Percentage of inhibition at each concentration was determined to generate an IC50 value for each test compound.

The target in another assay is T2, BIR3 domain of XIAP (Homo sapiens, UniProt P98170).
T2 construct: BIR3 domain, corresponding to amino acids 241-356 of XIAP
T2 sequence (P98170 with tags, fused parts or gaps): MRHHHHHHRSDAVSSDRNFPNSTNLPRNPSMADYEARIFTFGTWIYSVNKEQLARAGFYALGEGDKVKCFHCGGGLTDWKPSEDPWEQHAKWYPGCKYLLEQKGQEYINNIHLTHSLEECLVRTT
Nature of the assay: TR-FRET assay for BIR3 (inhibition of binding of XIAP BIR3 domain to SMAC-derived Peptide A). Conditions: 6x Histidine-tagged BIR3 domain (amino acids 241-356 of XIAP) 10 nM, Peptide A 20 nM. The procedure: as §1, §2, §3
The sequence of the BIR3 domain used for the TR-FRET assay is […]
Ten nanomolar of 6× Histidine-tagged BIR2 domain, corresponding to amino acids 124-240 of XIAP, or BIR3 domain, corresponding to amino acids 241-356 of XIAP, was mixed with 20 nM of the peptide […]-(z-biotin)-OH 1:2 TFA, in the presence of 50 mM Tris-Cl, pH 7.5, 100 mM NaCl, 1 mM dithiothreitol (DTT) and 0.1 mg/mL bovine serum albumin (BSA). Following a […] incubation at 37° C., Europium-Streptavidin and Allophycocyanin conjugated anti-Histidine antibody were added to a final concentration of 1.5 nM and 15 nM, respectively. Time-resolved fluorescence resonance energy transfer (TR-FRET) signals were measured 1 hour later at room temperature. Test compound potency was assessed at 10 serially diluted concentrations. Percentage of inhibition at each concentration was determined to generate an IC50 value for each test compound.
For orientation: In TR-FRET formats the signal depends on donor and acceptor labels being close together.

T1 sequence (P98170 with tags, fused parts or gaps C202A/C213G): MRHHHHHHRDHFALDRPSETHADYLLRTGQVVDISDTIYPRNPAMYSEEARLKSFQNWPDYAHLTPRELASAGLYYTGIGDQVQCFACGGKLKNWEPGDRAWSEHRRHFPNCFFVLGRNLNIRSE

As a reminder, the IC50 is the midpoint of a concentration-inhibition curve. Low readings indicate greater potency, high ones weaker potency. Take `CN[C@@H](C)C(=O)N[C@H](C(=O)N1c2ncccc2C[C@H]1C(=O)Nc1ccc(F)cc1C)C(C)C` [Example 22, (S)-1-[(S)-3-Methyl-2-((S)-2-methylamino-propionylamino)-butyryl]-2,3-dihydro-1H-pyrrolo[2,3-b]pyridine-2-carboxylic acid (4-fluoro-2-methyl-phenyl)-amide]: the results for the IC50 on BIR2 domain of XIAP and on BIR3 domain of XIAP were 103 nM and greater than 54800 nM, respectively.
Take `CN[C@@H](C)C(=O)N[C@H](C(=O)N1c2ncccc2C[C@H]1C(=O)Nc1cc(F)cc(F)c1)C(C)C` [Example 23, (S)-1-[(S)-3-Methyl-2-((S)-2-methylamino-propionylamino)-butyryl]-2,3-dihydro-1H-pyrrolo[2,3-b]pyridine-2-carboxylic acid (3,5-difluoro-phenyl)-amide]: the IC50 at BIR2 domain of XIAP was 427 nM; at BIR3 domain of XIAP, greater than 54800 nM.
Regarding `CN[C@@H](C)C(=O)N[C@H](C(=O)N1c2ncccc2C[C@H]1C(=O)NCc1ccc(F)cc1)C(C)C` [Example 24, (S)-1-[(S)-3-Methyl-2-((S)-2-methylamino-propionylamino)-butyryl]-2,3-dihydro-1H-pyrrolo[2,3-b]pyridine-2-carboxylic acid 4-fluoro-benzylamide], the results for the IC50 at BIR2 domain of XIAP and on BIR3 domain of XIAP were 774 nM and 9210 nM, respectively.
With `CN[C@@H](C)C(=O)N[C@H](C(=O)N1c2ncccc2C[C@H]1C(=O)Nc1ccccc1Cl)C(C)C` [Example 25, (S)-1-[(S)-3-Methyl-2-((S)-2-methylamino-propionylamino)-butyryl]-2,3-dihydro-1H-pyrrolo[2,3-b]pyridine-2-carboxylic acid (2-chloro-phenyl)-amide], the results for the IC50 on BIR2 domain of XIAP and on BIR3 domain of XIAP were 25.4 nM and greater than 54800 nM, respectively.
As for `CN[C@@H](C)C(=O)N[C@H](C(=O)N1c2ncccc2C[C@H]1C(=O)Nc1ccccc1C(=O)c1ccccc1)C(C)C` [Example 26, (S)-1-[(S)-3-Methyl-2-((S)-2-methylamino-propionylamino)-butyryl]-2,3-dihydro-1H-pyrrolo[2,3-b]pyridine-2-carboxylic acid (2-benzoyl-phenyl)-amide], the figures for the IC50 on BIR2 domain of XIAP and at BIR3 domain of XIAP were 61 nM and 52300 nM, respectively.
Regarding `CN[C@@H](C)C(=O)N[C@H](C(=O)N1c2ncccc2C[C@@H]1C(=O)Nc1ccccc1C(=O)c1ccccc1)C(C)C` [Example 27, (R)-1-[(S)-3-Methyl-2-((S)-2-methylamino-propionylamino)-butyryl]-2,3-dihydro-1H-pyrrolo[2,3-b]pyridine-2-carboxylic acid (2-benzoyl-phenyl)-amide], the IC50 on BIR2 domain of XIAP was 2110 nM; on BIR3 domain of XIAP it was greater than 54800 nM.
Consider `CN[C@@H](C)C(=O)N[C@H](C(=O)N1c2ncccc2C[C@H]1C(=O)Nc1c(F)cccc1F)C(C)C` [Example 28, (S)-1-[(S)-3-Methyl-2-((S)-2-methylamino-propionylamino)-butyryl]-2,3-dihydro-1H-pyrrolo[2,3-b]pyridine-2-carboxylic acid (2,6-difluoro-phenyl)-amide], for which the IC50 on BIR2 domain of XIAP is 14.4 nM; at BIR3 domain of XIAP, greater than 54800 nM.
For `CN[C@@H](C)C(=O)N[C@H](C(=O)N1c2ncccc2C[C@@H]1C(=O)Nc1c(F)cccc1F)C(C)C` [Example 29, (R)-1-[(S)-3-Methyl-2-((S)-2-methylamino-propionylamino)-butyryl]-2,3-dihydro-1H-pyrrolo[2,3-b]pyridine-2-carboxylic acid (2,6-difluoro-phenyl)-amide], the values for the IC50 at BIR2 domain of XIAP and on BIR3 domain of XIAP were 421 nM and greater than 54800 nM, respectively.
For `CN[C@@H](C)C(=O)N[C@H](C(=O)N1c2ncccc2C[C@H]1C(=O)Nc1ccccc1Oc1ccccc1)C(C)C` [Example 30, (S)-1-[(S)-3-Methyl-2-((S)-2-methylamino-propionylamino)-butyryl]-2,3-dihydro-1H-pyrrolo[2,3-b]pyridine-2-carboxylic acid (2-phenoxy-phenyl)-amide], the half-inhibitory concentration (IC50) at BIR2 domain of XIAP was determined as 158 nM; at BIR3 domain of XIAP it was 46800 nM.
In the case of `CN[C@@H](C)C(=O)N[C@H](C(=O)N1c2ncccc2C[C@@H]1C(=O)Nc1ccccc1Oc1ccccc1)C(C)C` [Example 31, (R)-1-[(S)-3-Methyl-2-((S)-2-methylamino-propionylamino)-butyryl]-2,3-dihydro-1H-pyrrolo[2,3-b]pyridine-2-carboxylic acid (2-phenoxy-phenyl)-amide], the IC50 is 11700 nM on BIR2 domain of XIAP and greater than 54800 nM on BIR3 domain of XIAP.
Take `CN[C@@H](C)C(=O)N[C@H](C(=O)N1c2ncccc2C[C@H]1C(=O)Nc1c(C)cccc1F)C(C)C` [Example 32, (S)-1-[(S)-3-Methyl-2-((S)-2-methylamino-propionylamino)-butyryl]-2,3-dihydro-1H-pyrrolo[2,3-b]pyridine-2-carboxylic acid (2-fluoro-6-methyl-phenyl)-amide]: the IC50 was 9.59 nM at BIR2 domain of XIAP and greater than 54800 nM at BIR3 domain of XIAP.
With `CN[C@@H](C)C(=O)N[C@H](C(=O)N1c2ncccc2C[C@H]1C(=O)Nc1c(C)cccc1C)C(C)C` [Example 33, (S)-1-[(S)-3-Methyl-2-((S)-2-methylamino-propionylamino)-butyryl]-2,3-dihydro-1H-pyrrolo[2,3-b]pyridine-2-carboxylic acid (2,6-dimethyl-phenyl)-amide], the IC50 is 44.9 nM on BIR2 domain of XIAP and greater than 54800 nM on BIR3 domain of XIAP.
For `CN[C@@H](C)C(=O)N[C@H](C(=O)N1c2ncccc2C[C@H]1c1nc2ccccc2[nH]1)C(C)C` [Example 34, (S)—N—{(S)-1-[(S)-2-(1H-Benzoimidazol-2-yl)-2,3-dihydro-pyrrolo[2,3-b]pyridine-1-carbonyl]-2-methyl-propyl}-2-methylamino-propionamide] the same measures were 137 nM and greater than 54800 nM.
On to `CN[C@@H](C)C(=O)N[C@H](C(=O)N1c2ncccc2C[C@@H]1c1nc2ccccc2[nH]1)C(C)C` [Example 35, (S)—N—{(S)-1-[(R)-2-(1H-Benzoimidazol-2-yl)-2,3-dihydro-pyrrolo[2,3-b]pyridine-1-carbonyl]-2-methyl-propyl}-2-methylamino-propionamide], for which the concentration for half-maximal inhibition (IC50) on BIR2 domain of XIAP was 37700 nM; on BIR3 domain of XIAP it was greater than 54800 nM.
`CN[C@@H](C)C(=O)N[C@H](C(=O)N1c2ncccc2C[C@H]1C(=O)Nc1ccccc1F)C(C)C` [Example 36, (S)-1-[(S)-3-Methyl-2-((S)-2-methylamino-propionylamino)-butyryl]-2,3-dihydro-1H-pyrrolo[2,3-b]pyridine-2-carboxylic acid (2-fluoro-phenyl)-amide]: the IC50 at BIR2 domain of XIAP is 12.7 nM; on BIR3 domain of XIAP it was greater than 54800 nM.
Turning to `CN[C@@H](C)C(=O)N[C@H](C(=O)N1c2ncccc2C[C@H]1C(=O)NCC(F)(F)F)C(C)C` [Example 37, (S)-1-[(S)-3-Methyl-2-((S)-2-methylamino-propionylamino)-butyryl]-2,3-dihydro-1H-pyrrolo[2,3-b]pyridine-2-carboxylic acid (2,2,2-trifluoro-ethyl)-amide], the figures for the IC50 at BIR2 domain of XIAP and on BIR3 domain of XIAP were 323 nM and greater than 54800 nM, respectively.
As for `CN[C@@H](C)C(=O)N[C@H](C(=O)N1c2ncccc2C[C@H]1C(=O)Nc1cnccc1C)C(C)C` [Example 38, (S)-1-[(S)-3-Methyl-2-((S)-2-methylamino-propionylamino)-butyryl]-2,3-dihydro-1H-pyrrolo[2,3-b]pyridine-2-carboxylic acid (4-methyl-pyridin-3-yl)-amide], the figures for the IC50 at BIR2 domain of XIAP and on BIR3 domain of XIAP were 237 nM and greater than 54800 nM, respectively.

The values above are taken from patent US9309248B2, “Azaindolines” (Hoffmann-La Roche Inc., priority 2012, dated 2016).
